Test results published in publication PMC7450530 (Biochemistry, 2019).

Tests used:
[1] = biological target: T1, B. anthracis wild-type gyrase (Bacillus anthracis, UniProt A0A6H3A7B1); assay type: biochemical; details: read-out: IC50, inhibition of DNA supercoiling
[2] = biological target: T2, E. coli wild-type gyrase (Escherichia coli, UniProt P0AES4); assay type: biochemical; details: read-out: IC50, inhibition of DNA supercoiling
[3] = biological target: T3, M. tuberculosis wild-type gyrase (Mycobacterium tuberculosis, UniProt P9WG47); assay type: biochemical
[4] = biological target: T4, E. coli GyrA^S83L gyrase (Escherichia coli, UniProt P0AES4, S83L); assay type: biochemical
[5] = biological target: T5, B. anthracis wild-type topoisomerase IV (Bacillus anthracis, UniProt A0A6H3AG07); assay type: biochemical; details: read-out: IC50, inhibition of DNA decatenation
[6] = biological target: T6, E. coli wild-type topoisomerase IV (Escherichia coli, UniProt P0AFI2); assay type: biochemical; details: read-out: IC50, inhibition of DNA decatenation
[7] = biological target: T7, E. coli ParC^S80L topoisomerase IV (Escherichia coli, UniProt P0AFI2, S80L); assay type: biochemical; details: read-out: IC50, inhibition of DNA decatenation
[8] = biological target: T1, B. anthracis wild-type gyrase; assay type: biochemical
[9] = biological target: T2, E. coli wild-type gyrase; assay type: biochemical
[10] = biological target: T3, M. tuberculosis wild-type gyrase; assay type: biochemical; remark: listed apart in the source
[11] = biological target: T4, E. coli GyrA^S83L gyrase; assay type: biochemical; remark: listed apart in the source
[12] = biological target: T5, B. anthracis wild-type topoisomerase IV; assay type: biochemical
[13] = biological target: T6, E. coli wild-type topoisomerase IV; assay type: biochemical
[14] = biological target: T7, E. coli ParC^S80L topoisomerase IV; assay type: biochemical
[15] = tested on: E. coli; details: cited from earlier work
[16] = tested on: Mycobacterium tuberculosis; details: cited from earlier work
[17] = tested on: gyrase; details: cited from earlier work
[18] = read-out: EC50, enhancement of single-stranded DNA cleavage

With CC[C@H](C)n1cc(C)c2c(C(=O)NCc3c(C)cc(C)[nH]c3=O)cc(-c3ccc(N4CCNCC4)nc3)cc21 [GSK126] the IC50 [1] was about 400 nM, the IC50 [2] was about 2000 nM and the “maximal decrease of supercoiling activity” value [3] was 60%. For the same compound, the IC50 ([3]; read-out: IC50, inhibition of DNA supercoiling) was about 75000 nM, the “fold more potent in supercoiling inhibition than against wild-type enzyme” value [4] was 5–10 fold and the IC50 [5] was about 2300 nM. The IC50 [6] was about 1400 nM, the IC50 [7] was about 1400 nM and the “induction of double-stranded DNA breaks” value [8] was “no ability to induce double-stranded breaks”. The “induction of double-stranded DNA breaks” value [9] was “no ability to induce double-stranded breaks”, the “levels of single-stranded DNA cleavage in the presence of ATP vs absence” value [9] was “considerably lower” and the “induction of double-stranded DNA breaks” value [10] was “no ability to induce double-stranded breaks”. The “enhancement of DNA cleavage” value [11] was “no ability to enhance DNA cleavage”, the “enhancement of double-stranded DNA breaks” value [12] was “no enhancement of double-stranded breaks was observed” and the EC50 [12, 18] was under 500 nM. For the same compound, the “ability to induce DNA cleavage in the presence of ATP” value [13] was “marginal”, the “enhancement of double-stranded DNA breaks” value [13] was “no enhancement of double-stranded breaks was observed” and the EC50 [13, 18] was under 500 nM. For the same compound, the “induction of DNA cleavage” value [14] was “ineffective at inducing DNA cleavage”, the “Minimal Inhibitory Concentration” value [15] was 0.26 µM and the “activity against the bacterium in a screen” value [16] was “moderate activity”.

For O=c1ccc2ncc(=O)n3c2n1C[C@H]3CN1CCC(NCc2cc3c(cn2)OCCC3)CC1 [gepotidacin], the “type of gyrase-mediated DNA breaks induced” value [17] is listed as “induces only gyrase-mediated single-stranded DNA breaks”.

For COc1ccc2ncc(C#N)c(CCN3CCC(NCc4cc5c(cn4)OCS5)CC3)c2c1 [GSK299423], the “type of gyrase-mediated DNA breaks induced” value [17] is listed as “induces only gyrase-mediated single-stranded DNA breaks”.
